We go through one compound from paper PMC5522996, “Big conductance calcium‐activated potassium channel openers control spasticity without sedation” (British Journal of Pharmacology, 2017).

pIC50: −log10 of the molar value.

Series [1] can be described thus: Stability in pooled mouse plasma. The format is in vitro ADME. The settings on record: 37°C, upper limit 100 min, read-out: t ½ in plasma. The method, then:
The stability of compounds when subjected to hepatic and plasma degradation was assessed in vitro by Inpharmatica, Cambridge, UK. Compounds (1 μM) were incubated with either pooled mouse liver microsomes (0.1 mg protein mL^−1) or pooled mouse plasma at 37°C for 0, 5, 10, 20 and 40 min before termination with acetonitrile containing warfarin as an analytical internal standard. Samples were centrifuged, and the resultant supernatant analysed for parent compound. The mass responses at baseline were taken as the 100% reference values against which the disappearance of the compound was measured. The natural log of the % remaining values was used to generate linear plots of disappearance of the compounds. Half‐life values were calculated from the slope of these plots. Hepatocyte metabolism was assessed by Cyprotex, Macclesfield, and 10 μM VSN16R was incubated with primary mouse, rat, monkey (Macaque) and human hepatocytes for 1 h, and the presence of metabolites was assessed using liquid […] mass spectroscopy. The stability of VSN16R was assessed in vivo by Inpharmatica, Cyprotex and Charles Rivers, Cambridge. Blood (plasma) samples were obtained prior to and 5 min to 24 h after drug administration of 2–5 mg·kg^−1 i.v. or 5 mg·kg^−1 p.o. VSN16R into outbred mice and rats (n = 3 per time point). […] Data are expressed as mean ± SEM. […]

The next series has as its target T1, 5-HT5A (Homo sapiens, UniProt P47898).
T1 construct: purchased Cerep; Chantest; DiscoveRx; Multispan; MDS Pharma Services
The series can be described thus: Receptor binding profile of VSN16R. The settings on record: 10µM VSN16R.

In a further series the target is T2, TrK B (Homo sapiens, UniProt Q16620).
T2 construct: purchased Cerep; Chantest; DiscoveRx; Multispan; MDS Pharma Services
T2 sequence (Q16620 32-822): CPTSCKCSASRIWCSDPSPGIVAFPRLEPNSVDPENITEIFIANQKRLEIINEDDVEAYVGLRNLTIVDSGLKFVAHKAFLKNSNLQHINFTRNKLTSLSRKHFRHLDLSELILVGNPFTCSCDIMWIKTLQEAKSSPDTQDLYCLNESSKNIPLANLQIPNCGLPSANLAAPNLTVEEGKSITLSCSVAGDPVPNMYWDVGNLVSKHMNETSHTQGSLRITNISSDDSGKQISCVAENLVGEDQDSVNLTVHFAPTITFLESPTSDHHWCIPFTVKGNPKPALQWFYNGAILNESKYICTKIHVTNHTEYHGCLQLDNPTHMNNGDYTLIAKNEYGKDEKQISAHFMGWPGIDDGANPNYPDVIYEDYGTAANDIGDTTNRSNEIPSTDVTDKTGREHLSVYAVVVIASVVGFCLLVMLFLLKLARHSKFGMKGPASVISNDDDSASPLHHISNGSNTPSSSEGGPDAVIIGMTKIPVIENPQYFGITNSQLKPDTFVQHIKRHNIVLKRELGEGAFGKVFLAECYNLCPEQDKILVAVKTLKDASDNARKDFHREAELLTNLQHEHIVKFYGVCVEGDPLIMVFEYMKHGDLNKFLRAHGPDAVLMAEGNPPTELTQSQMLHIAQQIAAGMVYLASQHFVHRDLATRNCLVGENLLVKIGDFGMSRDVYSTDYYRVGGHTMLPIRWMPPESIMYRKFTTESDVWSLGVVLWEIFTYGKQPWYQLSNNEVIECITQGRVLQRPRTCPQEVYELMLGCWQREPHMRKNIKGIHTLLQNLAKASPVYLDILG
The series can be described thus: Receptor binding profile of VSN16R. The settings on record: 10µM VSN16R.

For the next series, the target named is T3, β1 (Homo sapiens, UniProt P08588).
T3 construct: purchased Cerep; Chantest; DiscoveRx; Multispan; MDS Pharma Services
T3 sequence (P08588 whole entry): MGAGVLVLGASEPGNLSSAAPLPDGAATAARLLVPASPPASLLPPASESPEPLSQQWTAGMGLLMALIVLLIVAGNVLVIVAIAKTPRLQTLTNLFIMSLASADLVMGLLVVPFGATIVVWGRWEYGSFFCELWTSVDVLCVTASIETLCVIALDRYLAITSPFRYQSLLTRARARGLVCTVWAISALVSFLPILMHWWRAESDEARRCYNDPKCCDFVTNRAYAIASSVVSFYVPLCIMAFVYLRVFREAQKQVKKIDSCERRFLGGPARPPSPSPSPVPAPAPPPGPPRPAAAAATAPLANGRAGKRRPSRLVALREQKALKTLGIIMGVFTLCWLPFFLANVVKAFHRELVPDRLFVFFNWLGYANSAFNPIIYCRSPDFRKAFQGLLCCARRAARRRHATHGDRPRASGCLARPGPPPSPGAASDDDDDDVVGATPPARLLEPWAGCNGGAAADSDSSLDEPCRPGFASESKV
The series can be described thus: Receptor binding profile of VSN16R. The settings on record: 10µM VSN16R.

A further series deals with T4, CXCR2 (Homo sapiens, UniProt P25025).
T4 construct: purchased Cerep; Chantest; DiscoveRx; Multispan; MDS Pharma Services
T4 sequence (P25025 whole entry): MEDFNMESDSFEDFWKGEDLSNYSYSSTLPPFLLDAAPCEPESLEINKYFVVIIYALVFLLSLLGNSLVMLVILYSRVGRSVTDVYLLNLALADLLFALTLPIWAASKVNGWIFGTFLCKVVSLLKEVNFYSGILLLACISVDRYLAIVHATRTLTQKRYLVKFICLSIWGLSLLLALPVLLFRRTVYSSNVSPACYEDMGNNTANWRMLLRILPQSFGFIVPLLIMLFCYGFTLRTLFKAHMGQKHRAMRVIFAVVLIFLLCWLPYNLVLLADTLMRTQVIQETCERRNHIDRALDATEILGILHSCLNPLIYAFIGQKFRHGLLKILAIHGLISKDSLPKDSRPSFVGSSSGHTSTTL
Briefly: Receptor binding profile of VSN16R. The settings on record: 10µM VSN16R.

Another series deals with T5, MC4 (Homo sapiens, UniProt P32245).
T5 construct: purchased Cerep; Chantest; DiscoveRx; Multispan; MDS Pharma Services
T5 sequence (P32245 whole entry): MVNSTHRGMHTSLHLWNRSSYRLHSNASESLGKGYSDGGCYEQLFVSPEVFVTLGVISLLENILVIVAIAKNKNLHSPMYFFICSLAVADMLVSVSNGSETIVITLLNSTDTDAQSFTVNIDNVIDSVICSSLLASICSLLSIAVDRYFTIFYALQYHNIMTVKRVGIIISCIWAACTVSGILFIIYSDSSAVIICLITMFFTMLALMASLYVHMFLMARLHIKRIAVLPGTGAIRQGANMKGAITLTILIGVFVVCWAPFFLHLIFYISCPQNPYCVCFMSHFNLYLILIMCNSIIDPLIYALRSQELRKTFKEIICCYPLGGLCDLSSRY
The series can be described thus: Receptor binding profile of VSN16R. The settings on record: 10µM VSN16R.

The next series concerns rats. Briefly: 28 day toxicology in rats (100, 300, 1000mg/kg p.o.). The format is in vivo, rat. The method, then:
Twenty‐eight day toxicology in rats and dogs for Investigational New Drug filing was performed by Charles Rivers (UK). Reproductive toxicology in rabbits was performed by Charles Rivers (Canada). Pharmacokinetic and/or toxicological doses ranged from 5 to 1000 mg·kg^−1 p.o. in Sprague Dawley male and female rats (n = 6‐26 per group), 50–200 mg·kg^−1 p.o. in male and female Beagle dogs (n = 6 per group) and 100–750 mg·kg^−1 p.o. in female New Zealand white rabbits (n = 9 per group). Results are expressed as mean ± SD.
Tissue Analysed Result of Tissue Analysis in Rats Result of Tissue Analysis in Dogs Artery, Aorta Negative Negative
Bone Marrow femur Negative Negative
Bone Marrow sternum Negative Negative
Bone, Sternum Negative Negative
Epididymus Negative Negative
Adrenal Gland Negative Negative
Mammary Grand Negative Negative
Parathyroid Gland Negative Negative
Pituitary Gland Negative Negative
Prostate Gland Negative Negative
Salivary Gland Negative Negative
Seminal Vesicle Gland Negative Negative
Gut associated lymphoid Negative Negative
Large Intestine caecum Negative Negative
Large Intestine colon Negative Negative
Large Intestine rectum Negative Negative
Mandibular Lymph Node Negative Negative
Mesenteric Lymph Node Negative Negative
Skeletal Muscle Negative Negative
Nasal Cavity Negative Negative
Sciatic Nerve Negative Negative
Oesophagus Negative Negative
Pancreas Negative Negative
Small Intestine, duodenum Negative Negative
Small Intestine, Ileum Negative Negative […]
Following 28 day toxicology of feeding either: rats treated with 100mg/kg, 300mg/kg, 1000mg/kg p.o. (n-20/group) or dogs treated with 50mg/kg, 100mg/kg or 200mg/kg p.o. (n=6/group). […] Studies were performed by Charles Rivers, Ltd. However, * There was hypertrophy of the liver that was evident at high doses VSN16R was associated with liver weight (mean ± SD) increases: 11.0 ± 1.2g placebo, 11.6 ± 1.3g (300mg/kg p.o.), 16.7 ± 2.1g (1000mg/kg p.o. P<0.001 assessed using Students t test. n= 10 female rats/group) associated with liver enzyme induction, supporting enhanced VSN16R clearance in pharmacokinetic studies. […]

For another series, the target named is CYP450 1A2 (Homo sapiens, UniProt P05177). Briefly: CYP450 inhibition of substrate binding.
CYP450 1A2, sequence (P05177 whole entry): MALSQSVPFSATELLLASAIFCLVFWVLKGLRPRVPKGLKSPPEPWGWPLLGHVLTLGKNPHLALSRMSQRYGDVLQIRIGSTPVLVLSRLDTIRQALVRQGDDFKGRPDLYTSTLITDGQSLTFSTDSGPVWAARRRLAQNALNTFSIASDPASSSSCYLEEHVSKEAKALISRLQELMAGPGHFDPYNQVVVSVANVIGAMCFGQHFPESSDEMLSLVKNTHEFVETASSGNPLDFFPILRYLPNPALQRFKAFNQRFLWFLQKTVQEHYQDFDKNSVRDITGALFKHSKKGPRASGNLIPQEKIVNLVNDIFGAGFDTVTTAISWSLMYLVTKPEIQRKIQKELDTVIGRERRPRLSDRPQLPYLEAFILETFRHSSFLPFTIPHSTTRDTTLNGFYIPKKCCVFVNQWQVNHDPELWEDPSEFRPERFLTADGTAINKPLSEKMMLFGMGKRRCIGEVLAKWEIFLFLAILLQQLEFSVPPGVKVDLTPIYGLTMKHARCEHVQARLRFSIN
Series [2] has as its target CYP450 1A2 (Homo sapiens).
Text: IC50 Inhibition of substrate binding
Inhibition of binding of either 3-cyano-7-ethoxycoumarin, dibenzylfluorescein or 7-benzyoxy-4-
(trifluoromethyl) coumarin in human enzyme transfected BTI NN-5B1-4 cells or Sf9 insect cells or
inhibition of dextromethorphan substrate to CYP450 2D6 in liver microsomes.
Series [3] deals with T6, hCB2 Receptor (CHO-K1.CNR2) (Homo sapiens, UniProt P34972).
T6 construct: expressed in transfected cells; host or cells: CHO-K1
T6 sequence (P34972 whole entry): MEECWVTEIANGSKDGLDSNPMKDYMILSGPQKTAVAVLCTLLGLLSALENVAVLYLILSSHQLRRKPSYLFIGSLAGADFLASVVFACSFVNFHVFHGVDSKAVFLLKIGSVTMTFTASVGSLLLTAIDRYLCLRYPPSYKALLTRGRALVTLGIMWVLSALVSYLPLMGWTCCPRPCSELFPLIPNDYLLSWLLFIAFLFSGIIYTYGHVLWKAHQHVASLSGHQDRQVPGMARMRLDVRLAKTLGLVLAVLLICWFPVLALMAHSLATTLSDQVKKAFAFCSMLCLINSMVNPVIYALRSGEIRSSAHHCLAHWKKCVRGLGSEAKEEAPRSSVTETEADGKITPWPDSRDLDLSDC
Briefly: GTPγS Binding assay, CHO-K1.CNR2. Type of series: biochemical. The settings on record: max. tested 10μM.

In the next series the target is T7, 5-HT7 (Homo sapiens, UniProt P34969).
T7 construct: purchased Cerep; Chantest; DiscoveRx; Multispan; MDS Pharma Services
T7 sequence (P34969 whole entry): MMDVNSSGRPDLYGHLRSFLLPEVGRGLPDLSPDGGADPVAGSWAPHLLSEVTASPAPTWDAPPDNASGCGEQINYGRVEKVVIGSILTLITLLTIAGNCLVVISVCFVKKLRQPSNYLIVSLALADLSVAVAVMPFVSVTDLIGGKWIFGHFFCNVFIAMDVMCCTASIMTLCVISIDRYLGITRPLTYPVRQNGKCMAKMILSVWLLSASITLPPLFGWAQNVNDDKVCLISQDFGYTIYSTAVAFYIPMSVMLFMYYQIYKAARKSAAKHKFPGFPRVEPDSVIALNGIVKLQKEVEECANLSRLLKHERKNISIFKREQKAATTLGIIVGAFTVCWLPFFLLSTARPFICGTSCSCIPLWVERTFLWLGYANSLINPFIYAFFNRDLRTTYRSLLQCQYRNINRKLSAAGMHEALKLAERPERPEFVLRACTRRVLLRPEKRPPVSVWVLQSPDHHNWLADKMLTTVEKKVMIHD
Briefly: Receptor binding profile of VSN16R. The settings on record: 10µM VSN16R.

Another series concerns the target T8, EDG2 (Homo sapiens, UniProt Q92633).
T8 construct: purchased Cerep; Chantest; DiscoveRx; Multispan; MDS Pharma Services
The series can be described thus: Receptor binding profile of VSN16R. The settings on record: 10µM VSN16R.

The subject of the next series is GlyR. Briefly: Receptor binding profile of VSN16R. Also on record: species or system human. The settings on record: 10µM VSN16R.
The target in a further series is T9, M3 (Homo sapiens, UniProt P20309).
T9 construct: purchased Cerep; Chantest; DiscoveRx; Multispan; MDS Pharma Services
T9 sequence (P20309 whole entry): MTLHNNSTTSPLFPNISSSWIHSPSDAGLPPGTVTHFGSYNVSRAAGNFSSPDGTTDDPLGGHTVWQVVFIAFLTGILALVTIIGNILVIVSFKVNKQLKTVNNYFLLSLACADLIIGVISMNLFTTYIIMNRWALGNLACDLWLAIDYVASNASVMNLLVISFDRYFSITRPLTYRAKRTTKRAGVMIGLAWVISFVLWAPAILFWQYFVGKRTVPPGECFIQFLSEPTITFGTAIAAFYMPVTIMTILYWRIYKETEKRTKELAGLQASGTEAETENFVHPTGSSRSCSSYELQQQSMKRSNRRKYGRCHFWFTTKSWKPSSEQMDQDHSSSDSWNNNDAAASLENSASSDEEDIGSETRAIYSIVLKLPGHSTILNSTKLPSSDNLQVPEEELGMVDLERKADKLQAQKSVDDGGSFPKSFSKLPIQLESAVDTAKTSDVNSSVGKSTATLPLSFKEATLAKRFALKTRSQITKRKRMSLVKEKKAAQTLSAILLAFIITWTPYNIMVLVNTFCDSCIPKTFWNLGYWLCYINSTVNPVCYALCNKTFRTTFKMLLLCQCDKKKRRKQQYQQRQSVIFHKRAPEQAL
The series can be described thus: Receptor binding profile of VSN16R. The settings on record: 10µM VSN16R.

CYP450 1A2 (Homo sapiens), sequence (P11511 whole entry): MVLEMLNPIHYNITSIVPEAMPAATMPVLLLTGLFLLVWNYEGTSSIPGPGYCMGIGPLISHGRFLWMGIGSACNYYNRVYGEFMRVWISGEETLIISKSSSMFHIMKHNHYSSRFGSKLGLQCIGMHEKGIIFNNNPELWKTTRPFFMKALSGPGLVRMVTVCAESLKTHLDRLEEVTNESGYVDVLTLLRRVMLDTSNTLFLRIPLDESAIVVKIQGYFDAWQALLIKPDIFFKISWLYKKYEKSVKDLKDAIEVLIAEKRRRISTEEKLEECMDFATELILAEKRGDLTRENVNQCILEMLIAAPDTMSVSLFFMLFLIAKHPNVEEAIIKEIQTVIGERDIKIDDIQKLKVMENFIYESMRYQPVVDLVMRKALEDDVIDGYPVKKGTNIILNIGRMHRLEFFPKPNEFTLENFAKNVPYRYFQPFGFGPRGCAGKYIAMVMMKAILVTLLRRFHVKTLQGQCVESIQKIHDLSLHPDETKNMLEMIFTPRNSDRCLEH
T8 sequence (Q92633 whole entry): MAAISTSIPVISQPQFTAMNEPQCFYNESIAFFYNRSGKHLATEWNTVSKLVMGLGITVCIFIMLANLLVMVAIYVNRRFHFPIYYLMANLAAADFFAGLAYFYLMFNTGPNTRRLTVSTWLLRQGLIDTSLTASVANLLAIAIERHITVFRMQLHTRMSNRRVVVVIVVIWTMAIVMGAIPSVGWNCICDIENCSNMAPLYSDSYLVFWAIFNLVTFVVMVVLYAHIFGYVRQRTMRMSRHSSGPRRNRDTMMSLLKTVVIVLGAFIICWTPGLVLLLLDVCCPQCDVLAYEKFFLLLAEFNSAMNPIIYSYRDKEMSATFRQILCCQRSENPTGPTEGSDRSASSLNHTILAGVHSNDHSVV

A word on the pIC50: it is the IC50 on a negative log10 scale, so that one unit is a factor of ten. As for `C[C@H](CO)NC(=O)c1cccc(/C=C\CCCC(=O)N(C)C)c1` [VSN16R], in [1], the half-life at 1 μM is above 1.67 h. In addition, the Activity result on 5-HT5A, on TrK B, on β1, on CXCR2, at MC4 and on 5-HT7 was “Negligible Activity” throughout. For the same compound, the Activity result at EDG2, in the series on GlyR and on M3 was “Negligible Activity” throughout. Further, the “Histological analysis of animal tissues” value in the series with rats (both, Sprague Dawley (rat), rat, in vivo, 28 days) is listed as “essentially no significant microscopic findings attributable to VSN16R”. Moreover, the NOEL with rats (p.o., rats over 28 days) is 1000 mg/kg. The Clinical signs entry with rats (rat, in vivo) was “occasional salivation and ‘ploughing’ behaviours”. Moreover, the negative-log IC50 (pIC50) (at CYP450 1A2; in [2]) was below 5.00 in each case. The “Activity of VSN16R (Max. Tested)” value in [3] is on record as “No Activity”.
